# Results as given in PMC7773179, “Development and application of high-throughput screens for the discovery of compounds that disrupt ErbB4 signaling: Candidate cancer therapeutics” (PLoS ONE, 2020).
# Legend:
# ErbB4 = molecular target: T1, ErbB4 (Homo sapiens, UniProt Q15303); assay: phospho-ErbB4 sandwich ELISA: stimulation of ErbB4 tyrosine phosphorylation in CEM/ErbB4 cells; format: cell-based; details: for Emax: percentage of ErbB4 tyrosine phosphorylation stimulated by 10 nM NRG1β, read-out: ErbB4 Tyrosine Phosphorylation Emax ± SE; for EC50: semi-automated, 0–30 μM, at least three independent trials, read-out: ErbB4 Tyrosine Phosphorylation EC50 ± SE
# T1 construct: expressed in transfected cells; host or cells: CEM/ErbB4 cells
# T1 sequence (Q15303 26-1308): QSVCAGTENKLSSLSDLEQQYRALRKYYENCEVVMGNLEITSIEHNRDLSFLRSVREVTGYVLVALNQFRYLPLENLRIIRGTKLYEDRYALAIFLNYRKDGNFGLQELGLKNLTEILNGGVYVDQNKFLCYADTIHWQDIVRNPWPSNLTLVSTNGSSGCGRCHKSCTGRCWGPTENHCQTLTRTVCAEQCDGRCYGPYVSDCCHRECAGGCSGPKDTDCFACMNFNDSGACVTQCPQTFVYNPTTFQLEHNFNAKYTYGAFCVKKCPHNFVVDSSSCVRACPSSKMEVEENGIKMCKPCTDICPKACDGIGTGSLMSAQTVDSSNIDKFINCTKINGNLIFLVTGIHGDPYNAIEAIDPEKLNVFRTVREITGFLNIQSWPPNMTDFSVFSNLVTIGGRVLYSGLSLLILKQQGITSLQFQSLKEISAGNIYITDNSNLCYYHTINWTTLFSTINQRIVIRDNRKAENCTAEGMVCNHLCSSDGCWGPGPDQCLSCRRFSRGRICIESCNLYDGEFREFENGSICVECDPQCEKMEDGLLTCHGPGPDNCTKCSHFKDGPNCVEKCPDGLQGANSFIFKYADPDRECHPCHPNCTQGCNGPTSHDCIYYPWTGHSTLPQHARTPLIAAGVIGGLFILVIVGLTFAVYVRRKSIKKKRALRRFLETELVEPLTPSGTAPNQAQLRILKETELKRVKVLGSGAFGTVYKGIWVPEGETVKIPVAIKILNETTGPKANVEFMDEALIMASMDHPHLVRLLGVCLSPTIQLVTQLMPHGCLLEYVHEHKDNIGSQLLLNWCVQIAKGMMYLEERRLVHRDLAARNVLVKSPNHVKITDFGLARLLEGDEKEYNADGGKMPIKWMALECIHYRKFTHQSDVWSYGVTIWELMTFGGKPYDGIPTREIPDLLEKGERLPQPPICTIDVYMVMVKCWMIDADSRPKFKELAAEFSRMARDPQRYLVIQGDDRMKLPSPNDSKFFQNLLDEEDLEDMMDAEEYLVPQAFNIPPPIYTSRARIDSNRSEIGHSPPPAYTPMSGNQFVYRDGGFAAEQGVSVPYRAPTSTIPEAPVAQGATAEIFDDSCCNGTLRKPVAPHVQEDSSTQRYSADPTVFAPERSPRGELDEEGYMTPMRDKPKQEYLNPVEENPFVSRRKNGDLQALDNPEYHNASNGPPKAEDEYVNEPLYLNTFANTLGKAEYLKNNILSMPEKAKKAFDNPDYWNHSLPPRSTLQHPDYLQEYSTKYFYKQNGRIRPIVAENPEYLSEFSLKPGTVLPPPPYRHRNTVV
# Text: Our ultimate goal is the identification of ErbB4 partial agonists that inhibit coupling of ErbB4 to cell proliferation, preferably through stimulation of phosphorylation-dependent ErbB4 turnover and degradation. Thus, the first goal of these experiments is to develop and deploy an assay for stimulation of ErbB4 tyrosine phosphorylation. The CEM/ErbB4 cell line previously validated for assaying ligand-induced ErbB4 tyrosine phosphorylation was used to develop a 96-well assay for stimulation and inhibition of ErbB4 tyrosine phosphorylation. Briefly, ErbB4 tyrosine phosphorylation was assayed using a “sandwich” enzyme-linked immunosorbent assay (ELISA) kit (R&D Systems) that features an anti-ErbB4 capture antibody and an anti-phosphotyrosine detection antibody.
# Lysates generated by a previously established protocol for stimulating ErbB4 tyrosine phosphorylation in CEM/ErbB4 cells were used to develop and evaluate the ELISA conditions. Briefly, the CEM/ErbB4 cells were starved for 24 hours in serum- and factor-free base medium (RPMI) before being stimulated for seven minutes on ice with NRG2β (full agonist positive control), NRG2β/Q43L (partial agonist positive control), or NRG2β diluent (mock stimulation negative control). The cells were then lysed, and the lysates were immediately assayed for ErbB4 tyrosine phosphorylation or stored at -80°C until assayed.
# Ligand-induced ErbB4 tyrosine phosphorylation was stimulated using a published protocol. Briefly, the CEM/ErbB4 cells were starved for 24 hours in serum- and factor-free base medium (RPMI) before being stimulated for 7 minutes on ice with an ErbB4 ligand (NRG1β, NRG2β, or NRG2β/Q43L) or candidate small molecule ErbB4 partial agonists. The cells were then lysed using a published protocol, and the lysates were immediately assayed for ErbB4 tyrosine phosphorylation or stored at -80°C until assayed.
# ErbB4 tyrosine phosphorylation was analyzed using a 96-well “sandwich” enzyme-linked immunosorbent assay (ELISA) kit from R&D Systems (Catalog number DYC2115-2), which features an anti-ErbB4 capture antibody and an anti-phosphotyrosine antibody that is coupled to horseradish peroxidase (HRP). First, each well in a 96-well flat-bottom plate (ELISA plate) was coated with the anti-ErbB4 capture antibody, which recognizes the amino terminus of ErbB4. Nonspecific binding sites were then treated with a blocking buffer (1% BSA in PBS). Lysate samples containing ErbB4 were then added to the wells and incubated to permit ErbB4 binding to the immobilized anti-ErbB4 antibody. Then, an anti-phosphotyrosine antibody tagged with HRP was used to detect and visualize the phosphorylated tyrosine residues of the immobilized ErbB4 molecules. Oxidation of 3,3´,5,5´-tetramethylbenzidine by HRP (stopped using sulfuric acid) is indicative of ErbB4 tyrosine phosphorylation and was detected by measuring absorption at 450 nm. The data generated during the course of validating these assay conditions can be found in a (S1 Data).
# A Beckman Coulter Biomek 4000 automated liquid handling system was used to convert our standard, batch method for agonist stimulation of ErbB4 tyrosine phosphorylation to a semi-automated 96-well methodology. […] After stimulation, lysis buffer was added to each well and incubated for 20 minutes at 4°C with shaking. Following incubation, the plates were centrifuged at 3200 RCF for 20 minutes at 4°C.
# BaF3/EGFR+ErbB4 cells [1] = assay: IL3-dependent proliferation of BaF3/EGFR+ErbB4 cells, semi-automated MTT assay; details: for IC50: Mus musculus, BaF3, 120 h; for IC50 against 0.1 nM IL3: three independent trials, 120 h MTT, NA = not active
# Method: As noted earlier, the BaF3/EGFR+ErbB4 cells are IL3 dependent and this dependency can be rescued by stimulation of ErbB4 coupling to cell proliferation [8]. Therefore, the specificity of each of the 19 candidate ErbB4 inhibitors was tested by assaying inhibition of ErbB4-dependent and IL3-dependent cellular proliferation in parallel.
# BaF3/EGFR+ErbB4 cells [2] = assay: ErbB4-dependent (NRG1β-induced, IL3-independent) proliferation of BaF3/EGFR+ErbB4 cells, semi-automated MTT assay; format: cell-based, Mouse; details: for selective and potent inhibition of ErbB4-dependent cell proliferation (in words): ErbB4-dependent versus IL3-dependent proliferation; for IC50: Mus musculus, BaF3, read-out: IC50 against 0.3 nM NRG1β, three independent trials; for IC50 / NRG1β Emax ± SE in the presence of candidate: 120 h MTT; for NRG1β Emax ± SE in the presence of candidate: increasing NRG1β, three trials
# Method: This proliferation is dependent upon exogenous ErbB4 expression.
# As noted earlier, the BaF3/EGFR+ErbB4 cells are IL3 dependent and this dependency can be rescued by stimulation of ErbB4 coupling to cell proliferation. Therefore, the specificity of each of the 19 candidate ErbB4 inhibitors was tested by assaying inhibition of ErbB4-dependent and IL3-dependent cellular proliferation in parallel.
# [3] = read-out: IC50 against 0.1 nM IL3
# [4] = read-out: IC50 against 0.1 nM IL3, extrapolated value
Emax (ErbB4),EC50 (ErbB4),IC50 (BaF3/EGFR+ErbB4 cells [1]; [3]),IC50 (BaF3/EGFR+ErbB4 cells [2]; NA = not active),IC50 (BaF3/EGFR+ErbB4 cells [1]; [4]),IC50 against 0.1 nM IL3 (BaF3/EGFR+ErbB4 cells [1]),IC50 (BaF3/EGFR+ErbB4 cells [2]; *Extrapolated value),Structure (SMILES),selective and potent inhibition of ErbB4-dependent cell proliferation (in words) (BaF3/EGFR+ErbB4 cells [2]),NRG1β Emax ± SE in the presence of candidate (BaF3/EGFR+ErbB4 cells [2]; candidate 30 μM),inhibition of NRG1β-stimulated ErbB4-dependent proliferation (in words) (BaF3/EGFR+ErbB4 cells [2]; candidate 30 μM)
4.7 ± 1.1%,0.47 ± 0.38 µM,28 µM,6 µM,,,,CCC(=O)NC(N(Cc1ccccc1)Cc1ccccc1)C(Cl)(Cl)Cl (centres unmarked) [SR-33483],selectively and potently inhibit,0 AU,
3 ± 0.9%,< 0.3 µM,,13 µM,38 µM,,,O=S(=O)(NCc1cccnc1)c1ccc(Br)cc1Br [SR-33485],,0.01 ± 0.02 AU,
5.9 ± 2.8%,< 0.3 µM,0.45 µM,0.11 µM,,,,CCCOc1ccc(C(=O)C(CCCCC(CN(C)C)C(=O)c2ccc(OCCC)cc2)CN(C)C)cc1 (centres unmarked) [SR-33486],selectively and potently inhibit,0 AU,
2.7 ± 0.2%,< 0.3 µM,,6.8 µM,2100 µM,,,O=C(Nc1cccc(O)c1)c1cc2nc(-c3ccccc3)cc(-c3ccccc3)n2n1 [SR-33487],selectively and potently inhibit,0.07 ± 0.01 AU,
2.8 ± 0.4%,0.68 ± 0.36 µM,,29 µM,,no inhibition,,CCOC(=O)C1=C(N)OC2=C(C(=O)CC(C)(C)C2)C1C1CCCCC1 (centres unmarked) [SR-33491],selectively and potently inhibit,0.15 ± 0.02 AU,
1.8 ± 0.2%,4.1 ± 2.9 µM,,12 µM,81 µM,,,O=C(CC1c2ccccc2Oc2ccccc21)NCCOc1ccccc1 [SR-33492],selectively and potently inhibit,0.03 ± 0.01 AU,
2.1 ± 3.8%,< 0.3 µM,15 µM,5.6 µM,,,,O=C(c1nn2c(c1Cl)NC(c1cccs1)CC2C(F)(F)F)N(Cc1ccccc1)Cc1ccccc1 (centres unmarked) [SR-33493],,0 AU,
2.3 ± 0.4%,< 0.3 µM,,7 µM,32 µM,,,O=C1NC2=Nc3ccccc3SC(c3ccccc3)=C2C(c2ccc(O)cc2)N1 (centres unmarked) [SR-33494],selectively and potently inhibit,0 AU,
1.8 ± 0.5%,< 0.3 µM,,,390 µM,,47 µM,O=[N+]([O-])c1ccc(CN2CCN(C3CCC(c4ccccc4)CC3)CC2)cc1 (centres unmarked) [SR-33497],,0.09 ± 0.02 AU,
1.4 ± 0.4%,1.5 ± 0.6 µM,4.8 µM,2.3 µM,,,,O=C1NC(=O)/C(=C\c2ccc(OCc3ccc4ccccc4c3)c(I)c2)N1 [SR-33498],,0 AU,
2.9 ± 0.4%,< 0.3 µM,0.72 µM,0.39 µM,,,,COc1cc(CNCC2CCNCC2)cc(Cl)c1OCc1ccc(C)cc1 [SR-33507],,0 AU,completely inhibits
1.4 ± 0.3%,0.38 ± 0.25 µM,,,,fails to inhibit,32 µM,COc1ccc(C2CCCN2C(=O)c2c(-c3ccccc3Cl)noc2C)cc1 (centres unmarked) [SR-33509],,0.11 ± 0.02 AU,
5.2 ± 1%,2.1 ± 1.3 µM,13 µM,6.8 µM,,,,CCOc1ccc(CN(C(=O)[C@H](N)Cc2c[nH]c3ccccc23)C2CC2)cc1 [SR-33511],,0 AU,

Structure (SMILES),Emax (ErbB4),EC50 (ErbB4),IC50 (BaF3/EGFR+ErbB4 cells [1]; [3]),IC50 (BaF3/EGFR+ErbB4 cells [2]; NA = not active),IC50 (BaF3/EGFR+ErbB4 cells [1]; [4]),IC50 against 0.1 nM IL3 (BaF3/EGFR+ErbB4 cells [1]),IC50 (BaF3/EGFR+ErbB4 cells [2]; *Extrapolated value),selective and potent inhibition of ErbB4-dependent cell proliferation (in words) (BaF3/EGFR+ErbB4 cells [2]),NRG1β Emax ± SE in the presence of candidate (BaF3/EGFR+ErbB4 cells [2]; candidate 30 μM),inhibition of NRG1β-stimulated ErbB4-dependent proliferation (in words) (BaF3/EGFR+ErbB4 cells [2]; candidate 30 μM)
Cc1nn(-c2ccccc2)c2c1C(c1ccccc1F)SCC(=O)N2 (centres unmarked) [SR-33510],1.2 ± 0.4%,2 ± 0.8 µM,29 µM,11 µM,,,,,0.03 ± 0.01 AU,
